Test results: US4311699A, “Aminoacid derivatives of cephalosporin compounds” (priority 1980, dated 1982)
Values after ≈ are worked out from the molar mass of the structure shown.

Legend:
Test in all cases: in vitro antibacterial activity, minimal inhibitory concentration
Format in all cases: cell-based
[1] = test system: Strep. fec.
Text: (§1) The compounds of the invention are new chemical compounds that are used as pharmacological agents and especially as broad spectrum antibacterial agents. They are active in vitro against strains of both gram-positive and gram-negative bacteria.
(§2) Minimal Inhibitory Concentration (μg/ml)

[2] = test system: Pseudomonas BRK 12-4-4; conditions: BRK1244; Pseudomonas BRK 12-4-4, in vitro
Text: as §1, §2

[3] = test system: Prot. vulg.
Text: as §1, §2

[4] = test system: E. coli Brig; conditions: Escherichia coli
Text: as §1, §2

[5] = test system: Staph. aureus UC-76; conditions: Staphylococcus aureus, UC76; Staph. aureus UC-76, in vitro
Text: as §1, §2

[6] = test system: Klebs. pneu.
Text: as §1, §2

[7] = test system: Pseudomonas #28; conditions: Pseudomonas #28, in vitro; read-out: Minimal Inhibitory Concentration
Text: as §1, §2

[8] = test system: Entero. cloacae; conditions: Enterobacter cloacae
Text: as §1, §2

[9] = test system: E. coli Vogel; conditions: Escherichia coli
Text: as §1, §2

[10] = test system: Serr. marces.
Text: as §1, §2

[11] = test system: Staph. aureus S18733; conditions: Staphylococcus aureus
Text: as §1, §2

[12] = test system: Pseudomonas UI 18; conditions: UI18; Pseudomonas UI 18, in vitro
Text: as §1, §2

For `O=C(O)Cn1nnnc1SCC1=C(C(=O)O)N2C(=O)C(NC(=O)[C@H](NC(=O)c3cnc(-c4ccc(NC(=O)CN5CCCC5=O)cc4)nc3O)c3ccccc3)C2SC1` (stereo partly drawn) [Example 42], the MIC [1] was greater than 50 µg/mL, the MIC [2] was 12.5 µg/mL (≈ 14.8 µM) and the MIC [3] was 1.6 µg/mL (≈ 1.9 µM). For the same compound, the MIC [4] was 6.3 µg/mL (≈ 7.47 µM), the MIC [5] was 12.5 µg/mL (≈ 14.8 µM) and the MIC [6] was 3.1 µg/mL (≈ 3.67 µM). The MIC [7] was 6.3 µg/mL (≈ 7.47 µM), the MIC [8] was 6.3 µg/mL (≈ 7.47 µM) and the MIC [9] was 3.1 µg/mL (≈ 3.67 µM). It also gave an MIC [10] of 50 µg/mL (≈ 59.3 µM), an MIC [11] of 25 µg/mL (≈ 29.6 µM) and an MIC [12] of 6.3 µg/mL (≈ 7.47 µM).
